Experimental findings from patent US11739098B2 (BRISTOL-MYERS SQUIBB COMPANY, priority 2017, dated 2023) are described below.

Holding throughout (assay type): cell-based
The target in one test is T1, human TLR7 (Homo sapiens, UniProt Q9NYK1).
T1 construct: host or cells: HEK-Blue cells (HEK293-derived reporter line)
T1 sequence (Q9NYK1 27-1049): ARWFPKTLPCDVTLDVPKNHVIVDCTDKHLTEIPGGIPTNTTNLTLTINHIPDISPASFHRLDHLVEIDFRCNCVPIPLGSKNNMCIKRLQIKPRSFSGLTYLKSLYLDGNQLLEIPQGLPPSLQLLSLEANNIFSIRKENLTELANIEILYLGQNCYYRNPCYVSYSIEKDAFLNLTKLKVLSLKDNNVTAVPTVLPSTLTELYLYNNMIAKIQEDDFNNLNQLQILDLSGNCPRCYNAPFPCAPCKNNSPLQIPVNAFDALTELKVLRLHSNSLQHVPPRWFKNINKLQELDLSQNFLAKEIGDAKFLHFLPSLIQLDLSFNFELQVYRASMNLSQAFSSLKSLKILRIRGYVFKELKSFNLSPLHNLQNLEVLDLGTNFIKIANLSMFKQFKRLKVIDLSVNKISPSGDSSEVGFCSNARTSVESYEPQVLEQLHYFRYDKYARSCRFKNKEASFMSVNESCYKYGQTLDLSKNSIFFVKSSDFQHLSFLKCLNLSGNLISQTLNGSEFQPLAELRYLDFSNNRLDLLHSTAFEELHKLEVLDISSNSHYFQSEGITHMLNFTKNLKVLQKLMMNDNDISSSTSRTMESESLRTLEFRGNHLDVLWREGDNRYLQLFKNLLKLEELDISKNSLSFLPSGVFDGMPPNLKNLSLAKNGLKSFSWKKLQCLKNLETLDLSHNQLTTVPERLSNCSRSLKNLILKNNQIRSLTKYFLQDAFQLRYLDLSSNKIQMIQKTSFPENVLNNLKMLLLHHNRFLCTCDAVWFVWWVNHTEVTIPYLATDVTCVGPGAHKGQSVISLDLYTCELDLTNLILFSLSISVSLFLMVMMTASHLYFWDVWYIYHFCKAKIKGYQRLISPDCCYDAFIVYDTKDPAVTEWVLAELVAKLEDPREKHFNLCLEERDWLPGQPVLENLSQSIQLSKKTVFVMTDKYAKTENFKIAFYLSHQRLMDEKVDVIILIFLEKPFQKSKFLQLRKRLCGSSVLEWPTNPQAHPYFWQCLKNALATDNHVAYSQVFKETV
As to the kind of experiment: TLR7 inhibition reporter assay (HEK-Blue cells, SEAP reporter, gardiquimod stimulation). Conditions: HEK-Blue cells overexpressing human TLR7, SEAP reporter, gardiquimod 7.5 μM. Summed up:
(§1)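 After 22 h at 37 °C, SEAP secretion was measured from human TLR7-, TLR8- or TLR9-expressing HEK-Blue reporter cells given compound (0.05 nM–50 μM) 30 min before agonist: 7.5 μM gardiquimod, 15.9 μM R848 or 5 nM ODN2006 respectively. Percent inhibition referenced to agonist-plus-DMSO and known-inhibitor wells.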

The next test has as its target T2, human TLR8 (Homo sapiens, UniProt Q9NR97).
T2 construct: host or cells: HEK-Blue cells (HEK293-derived reporter line)
T2 sequence (Q9NR97 27-1041): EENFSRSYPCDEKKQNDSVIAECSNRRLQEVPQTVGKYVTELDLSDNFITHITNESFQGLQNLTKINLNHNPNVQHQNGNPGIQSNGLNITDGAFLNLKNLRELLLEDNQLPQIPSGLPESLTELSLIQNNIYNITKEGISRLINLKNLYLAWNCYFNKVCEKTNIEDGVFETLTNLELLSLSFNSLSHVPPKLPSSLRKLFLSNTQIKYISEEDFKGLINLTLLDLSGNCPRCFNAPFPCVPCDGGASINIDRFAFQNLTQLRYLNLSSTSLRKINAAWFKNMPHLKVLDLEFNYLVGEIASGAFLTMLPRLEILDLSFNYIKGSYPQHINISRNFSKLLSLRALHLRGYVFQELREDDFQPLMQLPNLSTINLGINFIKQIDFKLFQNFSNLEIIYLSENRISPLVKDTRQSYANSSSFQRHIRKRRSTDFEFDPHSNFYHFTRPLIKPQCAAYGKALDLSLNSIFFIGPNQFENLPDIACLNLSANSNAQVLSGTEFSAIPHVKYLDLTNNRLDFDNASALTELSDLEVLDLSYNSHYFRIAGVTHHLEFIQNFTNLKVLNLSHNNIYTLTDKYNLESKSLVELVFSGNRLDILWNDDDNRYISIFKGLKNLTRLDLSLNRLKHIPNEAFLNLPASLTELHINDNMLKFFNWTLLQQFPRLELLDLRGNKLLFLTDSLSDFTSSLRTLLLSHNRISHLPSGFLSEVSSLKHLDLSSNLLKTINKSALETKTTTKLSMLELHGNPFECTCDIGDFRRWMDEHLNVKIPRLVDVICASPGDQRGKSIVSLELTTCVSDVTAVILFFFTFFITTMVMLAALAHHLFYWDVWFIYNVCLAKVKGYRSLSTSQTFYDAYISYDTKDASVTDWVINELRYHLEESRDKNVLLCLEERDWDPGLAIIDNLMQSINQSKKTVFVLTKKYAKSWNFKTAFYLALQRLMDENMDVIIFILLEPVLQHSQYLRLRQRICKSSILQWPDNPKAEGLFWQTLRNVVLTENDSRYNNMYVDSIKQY
Description: TLR8 inhibition reporter assay (HEK-Blue cells, SEAP reporter, R848 stimulation). Conditions: HEK-Blue cells overexpressing human TLR8, SEAP reporter, R848 15.9 μM. Summed up:
as §1

The target of a further test is T3, human TLR9 (Homo sapiens, UniProt Q9NR96).
T3 construct: host or cells: HEK-Blue cells (HEK293-derived reporter line)
T3 sequence (Q9NR96 26-1032): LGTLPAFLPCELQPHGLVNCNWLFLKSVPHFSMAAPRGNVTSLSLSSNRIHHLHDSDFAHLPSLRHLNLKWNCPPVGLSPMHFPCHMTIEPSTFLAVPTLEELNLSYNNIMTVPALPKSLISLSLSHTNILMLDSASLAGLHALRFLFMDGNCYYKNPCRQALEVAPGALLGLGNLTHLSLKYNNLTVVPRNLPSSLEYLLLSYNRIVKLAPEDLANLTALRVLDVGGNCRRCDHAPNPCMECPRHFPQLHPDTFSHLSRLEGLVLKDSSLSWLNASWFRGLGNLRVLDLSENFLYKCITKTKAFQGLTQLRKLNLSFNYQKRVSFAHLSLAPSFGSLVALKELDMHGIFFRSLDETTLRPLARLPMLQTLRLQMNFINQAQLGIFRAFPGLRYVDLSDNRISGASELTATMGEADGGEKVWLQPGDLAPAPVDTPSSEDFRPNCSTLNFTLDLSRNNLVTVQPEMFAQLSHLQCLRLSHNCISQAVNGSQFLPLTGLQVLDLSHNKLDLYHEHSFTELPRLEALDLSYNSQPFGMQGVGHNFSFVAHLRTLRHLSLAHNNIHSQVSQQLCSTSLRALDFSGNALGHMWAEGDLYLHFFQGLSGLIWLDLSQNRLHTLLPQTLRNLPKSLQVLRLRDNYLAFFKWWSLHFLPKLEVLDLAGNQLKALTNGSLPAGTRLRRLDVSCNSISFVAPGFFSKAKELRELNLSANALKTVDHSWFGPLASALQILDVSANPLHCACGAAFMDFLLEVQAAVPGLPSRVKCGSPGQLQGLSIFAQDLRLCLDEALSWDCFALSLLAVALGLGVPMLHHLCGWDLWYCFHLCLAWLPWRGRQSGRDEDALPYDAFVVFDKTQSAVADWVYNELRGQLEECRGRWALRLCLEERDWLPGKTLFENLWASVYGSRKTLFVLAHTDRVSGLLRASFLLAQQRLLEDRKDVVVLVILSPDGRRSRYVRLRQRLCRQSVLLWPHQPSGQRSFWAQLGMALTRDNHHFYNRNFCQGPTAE
Description: TLR9 inhibition reporter assay (HEK-Blue cells, SEAP reporter, ODN2006 stimulation). The following applies: HEK-Blue cells overexpressing human TLR9, SEAP reporter, ODN2006 5 nM. Summed up: as §1

As for `CC(C)c1c(-c2cc(F)c3nccn3c2)[nH]c2ccc(C3CCN(CC(=O)N(C)C)CC3)cc12` [Example 408, 2-(4-(2-(8-fluoroimidazo[1,2-5a]pyridin-6-yl)-3-isopropyl-1H-indol-5-yl)piperidin-1-yl)-N,N-dimethylacetamide], the figures for the IC50 against human TLR7, against human TLR8 and against human TLR9 were less than 0.1 µM, 0.1 to 1 µM and 1 to 50 µM, respectively.
For the compound `CN(C)C(=O)CN1CCC(c2ccc3[nH]c(-c4cc(F)c5nccn5c4)c(CC(F)F)c3c2)CC1` [Example 409, 2-(4-(3-(2,2-difluoroethyl)-2-(8-fluoroimidazo[1,2-a]pyridin-6-yl)-1H-indol-5-yl)piperidin-1-yl)-N,N-dimethylacetamide], the IC50 is less than 0.1 µM on human TLR7, 0.1 to 1 µM against human TLR8 and 1 to 50 µM against human TLR9.
The matching figures for `CNC(=O)CN1CCC(c2ccc3[nH]c(-c4cc(F)c5nccn5c4)c(C(C)C)c3c2)CC1` [Example 410, 2-(4-(2-(8-fluoroimidazo[1,2-a]pyridin-6-yl)-3-isopropyl-1H-indol-5-yl)piperidin-1-yl)-N-methylacetamide]: less than 0.1 µM, 0.1 to 1 µM and 1 to 50 µM.
Consider `CNC(=O)CN1CCC(c2ccc3[nH]c(-c4cc(F)c5nccn5c4)c(CC(F)F)c3c2)CC1` [Example 411, 2-(4-(3-(2,2-difluoroethyl)-2-(8-fluoroimidazo[1,2-a]pyridin-6-yl)-1H-indol-5-yl)piperidin-1-yl)-N-methylacetamide], for which the IC50 is less than 0.1 µM against human TLR7, 0.1 to 1 µM against human TLR8 and 1 to 50 µM on human TLR9.
Regarding `Cc1c(-c2[nH]c3ccc(C4CCN(CC(=O)N(C)C)CC4)cc3c2C(C)C)cn2ccnc2c1C` [Example 412, 2-(4-(2-(7,8-dimethylimidazo[1,2-a]pyridin-6-yl)-3-isopropyl-1H-indol-5-yl)piperidin-1-yl)-N,N-dimethylacetamide], the IC50 at human TLR7 is less than 0.1 µM; on human TLR8, less than 0.1 µM; at human TLR9 it was 0.1 to 1 µM.
Take `CNC(=O)CN1CCC(c2ccc3[nH]c(-c4cn5ccnc5c(C)c4C)c(C(C)C)c3c2)CC1` [Example 413, 2-(4-(2-(7,8-dimethylimidazo[1,2-a]pyridin-6-yl)-3-isopropyl-1H-indol-5-yl)piperidin-1-yl)-N-methylacetamide]: the IC50 is less than 0.1 µM at human TLR7, less than 0.1 µM against human TLR8 and 0.1 to 1 µM at human TLR9.
On to `CNC(=O)CN1CCC(c2ccc3[nH]c(-c4cn5ccnc5c(Cl)c4C)c(C(C)C)c3c2)CC1` [Example 414, 2-(4-(2-(8-chloro-7-methylimidazo[1,2-a]pyridin-6-yl)-3-isopropyl-1H-indol-5-yl)piperidin-1-yl)-N-methylacetamide], for which the IC50 against human TLR7 is less than 0.1 µM; against human TLR8 it was less than 0.1 µM; at human TLR9, 1 to 50 µM.
In the case of `Cc1c(-c2[nH]c3ccc(C4CCN(CC(=O)N(C)C)CC4)cc3c2C(C)C)cn2ccnc2c1Cl` [Example 415, 2-(4-(2-(8-chloro-7-methylimidazo[1,2-a]pyridin-6-yl)-3-isopropyl-1H-indol-5-yl)piperidin-1-yl)-N,N-dimethylacetamide], the IC50 was less than 0.1 µM at human TLR7, less than 0.1 µM against human TLR8 and 1 to 50 µM against human TLR9.
Turning to `Cc1cn2cc(-c3[nH]c4ccc(C5CCN(CC(=O)N(C)C)CC5)cc4c3CC(F)F)ccc2n1` [Example 416, 2-(4-(3-(2,2-difluoroethyl)-2-(2-methylimidazo[1,2-a]pyridin-6-yl)-1H-indol-5-yl)piperidin-1-yl)-N,N-dimethylacetamide], the IC50 on human TLR7 is less than 0.1 µM; at human TLR8, more than 3.13 µM; at human TLR9, less than 0.1 µM.
For the compound `CCc1c(C)c(-c2[nH]c3ccc(C4CCN(CC(=O)NC)CC4)cc3c2C(C)C)cn2ccnc12` [Example 418, 2-(4-(2-(8-ethyl-7-methylimidazo[1,2-a]pyridin-6-yl)-3-isopropyl-1H-indol-5-yl)piperidin-1-yl)-N-methylacetamide], the figures for the IC50 against human TLR7, against human TLR8 and against human TLR9 were less than 0.1 µM, 0.1 to 1 µM and 1 to 50 µM, respectively.
`CNC(=O)CN1CCC(c2ccc3[nH]c(-c4cc(C)n5nc(C)cc5c4)c(C(C)C)c3c2)CC1` [Example 419, 2-(4-(2-(2,7-dimethylpyrazolo[1,5-a]pyridin-5-yl)-3-isopropyl-1H-indol-5-yl)piperidin-1-yl)-N-methylacetamide]: the IC50 is less than 0.1 µM against human TLR7, 0.1 to 1 µM at human TLR8 and 1 to 50 µM against human TLR9.
For `Cc1cc2cc(-c3[nH]c4ccc(C5CCN(CC(=O)N(C)C)CC5)cc4c3C(C)C)cc(C)n2n1` [Example 420, 2-(4-(2-(2,7-dimethylpyrazolo[1,5-a]pyridin-5-yl)-3-isopropyl-1H-indol-5-yl)piperidin-1-yl)-N,N-dimethylacetamide], in that order: less than 0.1 µM, less than 0.1 µM and 1 to 50 µM.
